Laboratory results published in patent publication US9872875B2, “Component and method for treating viral disease” (Institut Pasteur of Shanghai, Chinese Academy of Sciences, priority 2012, dated 2018).
Like-named read-outs stand apart in the source and are kept apart here.

What was measured:
P2Y1 = P2Y1 (Homo sapiens, UniProt P47900); conditions: Table 9, antagonists; cell names P2Y1; cited from earlier work
EV71 [1] = assay: Effects of other antagonists and agonists on EV71 (Table 9); assay type: cell-based, Enterovirus 71; parameters: key: “NO” indicates there is negative
P2X1 receptor = target: T1, P2X1 receptor (Homo sapiens, UniProt P51575); conditions: cited from earlier work
T1 sequence (P51575 1-399): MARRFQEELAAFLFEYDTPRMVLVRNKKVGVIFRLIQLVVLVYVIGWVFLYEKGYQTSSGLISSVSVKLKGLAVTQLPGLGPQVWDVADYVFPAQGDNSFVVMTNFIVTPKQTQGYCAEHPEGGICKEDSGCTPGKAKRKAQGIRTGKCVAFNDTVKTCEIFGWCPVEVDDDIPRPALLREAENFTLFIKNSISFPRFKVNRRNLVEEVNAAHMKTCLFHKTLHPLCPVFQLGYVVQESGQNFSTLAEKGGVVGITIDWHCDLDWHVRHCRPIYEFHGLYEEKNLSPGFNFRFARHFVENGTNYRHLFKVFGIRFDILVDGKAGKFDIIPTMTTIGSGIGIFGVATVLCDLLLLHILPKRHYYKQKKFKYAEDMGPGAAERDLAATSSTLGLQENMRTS

P2X3 receptor = target: T2, P2X3 receptor (Homo sapiens, UniProt P56373); conditions: cited from earlier work
T2 sequence (P56373 1-397): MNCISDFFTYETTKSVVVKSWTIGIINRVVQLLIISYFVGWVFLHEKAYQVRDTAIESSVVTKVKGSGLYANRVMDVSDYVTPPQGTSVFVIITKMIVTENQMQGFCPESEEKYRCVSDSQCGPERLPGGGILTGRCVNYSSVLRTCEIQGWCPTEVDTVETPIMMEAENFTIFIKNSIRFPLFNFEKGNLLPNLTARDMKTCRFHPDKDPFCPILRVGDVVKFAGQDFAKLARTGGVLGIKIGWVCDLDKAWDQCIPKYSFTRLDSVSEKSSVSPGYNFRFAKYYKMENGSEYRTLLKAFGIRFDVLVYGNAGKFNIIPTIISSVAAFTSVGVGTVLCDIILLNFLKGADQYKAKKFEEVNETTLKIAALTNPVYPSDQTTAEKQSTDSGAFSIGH

P2X2 receptor = target: T3, P2X2 receptor (Homo sapiens, UniProt Q9UBL9); conditions: Table 8, antagonists; cited from earlier work
T3 sequence (Q9UBL9 1-471): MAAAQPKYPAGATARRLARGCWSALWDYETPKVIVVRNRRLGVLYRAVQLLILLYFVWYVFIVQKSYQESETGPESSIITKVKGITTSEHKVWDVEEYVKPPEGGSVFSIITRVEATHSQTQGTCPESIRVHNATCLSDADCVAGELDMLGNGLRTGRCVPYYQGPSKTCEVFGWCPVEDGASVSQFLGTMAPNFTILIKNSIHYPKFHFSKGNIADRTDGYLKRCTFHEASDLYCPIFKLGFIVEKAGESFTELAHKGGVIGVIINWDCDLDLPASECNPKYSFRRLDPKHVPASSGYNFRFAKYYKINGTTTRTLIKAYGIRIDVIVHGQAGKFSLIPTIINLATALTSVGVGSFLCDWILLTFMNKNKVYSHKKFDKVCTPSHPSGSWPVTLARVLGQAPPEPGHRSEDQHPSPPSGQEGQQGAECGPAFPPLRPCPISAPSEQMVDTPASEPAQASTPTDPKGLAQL

EV71 [2] = assay: Inhibition of EV71 replication in RD cells at 0.1, 1, 10 and 100 μM (CPE, crystal violet); assay type: cell-based, Enterovirus 71
Description: Inhibitory effect of each P2X receptor antagonists and agonists on EV71 replication was measured at 0.1, 1, 10, and 100 μM. Specific procedures refer to “1” of Example 1. after infection, however, cells need to be incubated for 3˜4 days, stained with crystal violet, and observed under optical microscope to determine whether or not CPE (cytopathic effect) was present. In addition, the effect of compounds at each concentration on cytotoxicity to RD cells was determined. After culturing RD cells in various concentrations of compounds for 3˜4 days, stained with crystal violet, and observed under optical microscope to observe whether or not cell layer was damaged. Compounds capable of protecting cells from infection without damage of healthy cell layer can inhibit EV71 replication in RD cells.

P2X7 receptor = target: T4, P2X7 receptor (Homo sapiens, UniProt Q99572); conditions: Table 8, antagonists; cited from earlier work
T4 sequence (Q99572 1-595): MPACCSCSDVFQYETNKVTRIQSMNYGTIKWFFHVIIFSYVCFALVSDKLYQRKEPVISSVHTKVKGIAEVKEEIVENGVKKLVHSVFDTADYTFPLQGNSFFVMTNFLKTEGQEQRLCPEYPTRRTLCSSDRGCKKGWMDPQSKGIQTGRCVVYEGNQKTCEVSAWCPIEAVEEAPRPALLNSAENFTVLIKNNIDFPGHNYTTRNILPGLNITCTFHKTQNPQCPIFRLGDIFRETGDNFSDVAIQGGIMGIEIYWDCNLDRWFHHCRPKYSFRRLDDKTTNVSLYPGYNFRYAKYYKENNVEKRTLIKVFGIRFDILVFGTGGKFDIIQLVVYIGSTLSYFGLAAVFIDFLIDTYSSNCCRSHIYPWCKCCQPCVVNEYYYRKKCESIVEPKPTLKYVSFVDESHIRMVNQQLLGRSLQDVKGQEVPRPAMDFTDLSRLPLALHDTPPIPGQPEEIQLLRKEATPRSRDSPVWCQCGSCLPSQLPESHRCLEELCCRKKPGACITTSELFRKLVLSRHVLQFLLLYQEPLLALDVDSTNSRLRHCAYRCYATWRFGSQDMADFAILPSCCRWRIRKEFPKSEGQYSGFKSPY

P2X2/3 = P2X2/3 (Homo sapiens, UniProt P56373+Q9UBL9); conditions: Table 9, antagonists; cited from earlier work
P2X5 receptor = P2X5 receptor (Homo sapiens, UniProt Q93086); conditions: Table 8, antagonists; cited from earlier work
Chain of P2X5 receptor (Q93086 whole entry): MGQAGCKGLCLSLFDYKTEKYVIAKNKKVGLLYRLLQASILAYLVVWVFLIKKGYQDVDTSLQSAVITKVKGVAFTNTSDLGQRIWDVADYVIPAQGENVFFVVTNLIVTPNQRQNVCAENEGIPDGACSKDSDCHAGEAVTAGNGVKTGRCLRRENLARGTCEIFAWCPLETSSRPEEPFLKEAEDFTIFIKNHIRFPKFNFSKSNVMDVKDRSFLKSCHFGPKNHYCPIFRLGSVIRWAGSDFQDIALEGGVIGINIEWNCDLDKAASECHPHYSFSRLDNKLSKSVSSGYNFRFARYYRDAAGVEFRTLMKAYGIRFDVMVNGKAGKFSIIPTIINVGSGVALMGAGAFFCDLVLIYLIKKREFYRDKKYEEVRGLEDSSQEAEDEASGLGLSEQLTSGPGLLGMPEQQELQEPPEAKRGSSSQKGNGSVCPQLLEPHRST

Chain of P2Y1 (P47900 whole entry, species assumed): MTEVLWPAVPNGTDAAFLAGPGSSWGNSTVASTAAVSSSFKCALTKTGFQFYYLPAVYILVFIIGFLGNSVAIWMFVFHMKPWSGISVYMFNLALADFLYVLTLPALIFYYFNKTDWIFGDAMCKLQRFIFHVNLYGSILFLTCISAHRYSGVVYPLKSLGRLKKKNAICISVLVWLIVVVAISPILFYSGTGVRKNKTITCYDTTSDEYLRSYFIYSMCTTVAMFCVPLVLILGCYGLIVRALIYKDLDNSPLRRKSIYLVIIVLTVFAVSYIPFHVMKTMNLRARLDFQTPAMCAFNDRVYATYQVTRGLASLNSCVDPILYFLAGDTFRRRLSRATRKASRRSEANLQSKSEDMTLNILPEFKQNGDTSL

Compound: CNc1ncnc2c1ncn2[C@H]1C[C@H](OP(=O)(O)O)[C@@H](COP(=O)(O)O)O1 [MRS 2179]
- P2Y (P2Y1): ✓ ✓ P2Y1 (✓ ✓ activating concentration 10 nM-300 nM)
- EV71 Log10 reduction (EV71 [1]): NO
- P2X receptors 1 (P2X1 receptor; Table 9, antagonists): ✓ (✓ activating concentration >300 nM)
- P2X receptors 3 (P2X3 receptor; Table 9, antagonists): ✓ (✓ activating concentration >300 nM)

Compound: trinitrophenol-ATP [TNP-ATP]
- P2X receptors 2 (P2X2 receptor): + (+: inhibitory concentration >300 nM)
- inhibition of EV71 replication (statement in words) (EV71 [2]): can also inhibit EV71 replication
- Inhibition of EV71 replication (EV71 [2]; Table 8, antagonists): + (+: inhibitory concentration >300 nM)
- EV71 Log10 reduction (EV71 [1]): NO
- P2X receptors 7 (P2X7 receptor): + (+: inhibitory concentration >300 nM)
- Heteromultimer (P2X2/3): ✓ ✓ ✓ (✓ ✓ ✓ activating concentration <10 nM)
- P2X receptors 1 (P2X1 receptor; Table 8, antagonists): +++ (+++: inhibitory concentration <10 nM)
- P2X receptors 1 (P2X1 receptor; Table 9, antagonists): ✓ ✓ ✓ (✓ ✓ ✓ activating concentration <10 nM)
- P2X receptors 5 (P2X5 receptor): + (+: inhibitory concentration >300 nM)
- P2X receptors 3 (P2X3 receptor; Table 8, antagonists): +++ (+++: inhibitory concentration <10 nM)
- P2X receptors 3 (P2X3 receptor; Table 9, antagonists): ✓ ✓ ✓ (✓ ✓ ✓ activating concentration <10 nM)
